Test results from US11618746B2, “Inhibitors of APOL1 and methods of using same” (Vertex Pharmaceuticals Incorporated, priority 2018, dated 2023).

Biological target: T1, G1 APOL1 (Homo sapiens, UniProt O14791, I384M/S342G)
T1 construct: expressed in transfected cells
T1 sequence (O14791 28-398 S342G/I384M): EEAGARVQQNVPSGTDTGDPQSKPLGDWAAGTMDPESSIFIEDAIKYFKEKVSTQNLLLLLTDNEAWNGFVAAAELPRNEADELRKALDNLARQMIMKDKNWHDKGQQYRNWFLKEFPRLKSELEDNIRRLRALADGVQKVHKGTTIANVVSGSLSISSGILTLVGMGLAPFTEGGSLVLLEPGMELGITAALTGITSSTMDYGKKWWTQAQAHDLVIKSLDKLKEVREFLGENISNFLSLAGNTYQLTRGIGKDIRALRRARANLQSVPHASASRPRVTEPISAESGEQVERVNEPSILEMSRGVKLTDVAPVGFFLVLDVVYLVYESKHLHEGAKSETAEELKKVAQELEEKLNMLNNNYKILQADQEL
Assay: Acute APOL1 Thallium Assay with inducible stable clones of HEK 293 cells
Type: cell-based
Settings: HEK T-Rex tetracycline-inducible cells expressing G1 APOL1 (clone G1 DC3.25); inhibition of thallium flux rate
In short: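 HEK293 T-Rex cells with tetracycline-inducible G1 APOL1 (clone DC3.25), 26000 cells per well, induced with tetracycline at plating and incubated at 37° C, 5% CO2. Pore activity read on FLIPR as Tl+ influx via fluorescence of AM-ester-loaded thallium-sensitive dye.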

SMILES | IC50 [nM]
N#Cc1ccc(-c2[nH]c3c(F)cc(F)cc3c2CCC(=O)N[C@H]2CCNC2=O)cc1 [Compound 20, 3-[2-(4-cyanophenyl)-5,7-difluoro-1H-indol-3-yl]-N-[(3S)-2-oxopyrrolidin-3-yl]propanamide] | < 250
CC1C[C@H](NC(=O)CCc2c(-c3ccc(F)cc3)[nH]c3c(F)cc(F)cc23)C(=O)N1 (mixture of isomers) [Compound 6] | 250 to 1000
O=C(CCc1c(-c2ccc(F)cc2)[nH]c2c(F)cc(F)cc12)N[C@H]1C[C@@H](CO)NC1=O [Compound 7] | > 1000
O=C(CCc1c(-c2ccc(F)cc2)[nH]c2c(F)cc(F)cc12)N[C@@H]1CCNC1=O [Compound 13] | 250 to 1000
Cc1cc(F)c2[nH]c(-c3ccc(F)cc3)c(CCC(=O)N[C@@H]3C(=O)NC[C@H]3O)c2c1 [Compound 29] | < 250
O=C1C[C@@H](NC(=O)CCc2c(-c3ccc(F)cc3)[nH]c3c(F)cc(F)cc23)C(=O)N1 [Compound 16] | 250 to 1000
O=C(CCc1c(-c2ccc(F)cc2)[nH]c2c(F)cc(Br)cc12)N[C@H]1CCNC1=O [Compound 27] | < 250
CC1(NC(=O)CCc2c(-c3ccc(F)cc3)[nH]c3c(F)cc(F)cc23)CCNC1=O (racemic) [Compound 14] | 250 to 1000

Results, then the compound that gave them:

IC50 [nM] | SMILES
< 250 | O=C(CCc1c(-c2ccccc2)[nH]c2ccc(Cl)cc12)N[C@@H]1C(=O)NC[C@H]1O [Compound 44, 3-(5-chloro-2-phenyl-1H-indol-3-yl)-N-[(3S,4R)-4-hydroxy-2-oxo-pyrrolidin-3-yl]propanamide]
< 250 | O=C(CCc1c(-c2cc(F)cc(F)c2)[nH]c2c(F)cc(F)cc12)N[C@@H]1C(=O)NC[C@H]1O [Compound 104]
< 250 | O=C(CCc1c(-c2ccccc2)[nH]c2cc(F)c(F)cc12)N[C@@H]1C(=O)NC[C@H]1O [Compound 82]
< 250 | O=C(CCc1c(-c2ccc(F)cc2)[nH]c2c(F)c(F)ccc12)N[C@@H]1C(=O)NC[C@H]1O [Compound 58]
